Results as given in patent US20080051413A1, “Nitrophenylpiperazine derivative of xanthine which relaxes tracheal airway and increases respiratory performance” (KAOHSIUNG MEDICAL UNIVERSITY, priority 2006, published 2008).

Columns and labels:
[1] = test system: cultured guinea pig tracheal smooth muscle cells; test: Expression of PKA and PKG (Western blot); format: cell-based; conditions: 1 _M, 30 min
Description: (§1) Cell Culture of Tracheal Smooth Muscle: Guinea pigs (350-450 g) were injected i.p. with a lethal dose of pentobarbital. The tracheas were excised and cut longitudinally through the cartilage. Using a dissecting microscope, TSM strips were dissected from the surrounding parentchyma. The epithelium was removed from the luminal surface, and bands of TSM were gently separated from the underlying connective tissue. Then TSM strips were chopped into small sections (1 mm^3) and incubated in Hanks' balanced salt solution (138 mM NaCl, 4 mM NaHCO3, 5 mM KCl, 0.3 mM KH2PO4, 0.3 mM Na2HPO4, and 1.0 mM glucose) with 0.05% elastase type IV and 0.2% collagenase type IV (Invitrogen, Carlsbad, Calif.) for 30 min at 37_ with gentle shaking. The solution of dissociated smooth muscle cells was centrifuged (6 min at 500 g), and the pellet was resuspended in 1:1 Dulbecco's modified Eagle's medium/Ham's F-12 medium supplemented with 10% fetal bovine serum, 0.244% NaHCO3, and 1% penicillin/streptomycin. Cells were cultured in 25-cm^2 flasks at 37_ in humidified air containing 5% CO2. Confluent cells were detached with 0.25% trypsin-0.02% EDTA at 37_and then subcultured to establish secondary cultures. Cultures were maintained for no more than four passages. They were identified as smooth muscle cells by the typical hill-and-valley appearance, and cellular homogeneity was further confirmed by the presence of smooth muscle specific _-myosin and _-actin immunoreactivity. Indirect immunofluorescence staining for a variety of antigens was carried out by first plating the cells on chamber slides, fixing the cells in 3.7% formaldehyde-phosphate-buffered saline for 10 min, and permeabilizing the cells with phosphate-buffered saline and 0.1% Triton X-100. Cells were then stained with either a mouse monoclonal antibody directed against the amino-terminal 10 amino acids of _-smooth muscle actin or _-myosin (Roche Diagnostics, Indianapolis, Ind.). All cells were stained with fluorescein-labeled goat anti-mouse IgG antibody (Roche Diagnostics).
Expression of PKA and PKG: The expression of PKA and PKG was determined by Western blot as previously described by Wu et al. and Murthy et al. (Wu B N, Lin R J, Lo Y C, Shen K P, Wang C C, Lin Y T, and Chen I J (2004) KMUP-1, a xanthine derivatives, induces relaxation of guinea-pig isolated trachea: the role of the epithelium, cyclic nucleotides and K^+ channels. Br J Pharmacol 142:1105-1114; Murthy K S, Zhou H, and Makhlouf G M (2002) PKA-dependent activation of PDE3A and PDE4 and inhibition of adenylyl cyclase V/VI in smooth muscle. Am J Physiol 282:C508-C517). Guinea pig TSMCs were incubated with KMUP-3 for 30 min. Each of the cell lysates, each containing 1 _g of cellular protein, was electrophoresed in 7.5% SDS-polyacrylamide gel electrophoresis and then transferred to polyvinylidene diflouride membrane (Millipore Corporation, Billerica, Mass.). The membrane was stained with Ponceau S to verify the integrity of the transferred proteins and to monitor the unbiased transfer of all protein samples. The membrane was then washed with 25 ml of TBS (100 mM NaCl, 0.1% and 10 mM Tris-HCl, pH 7.5) for 5 min at room temperature and incubated in 25 ml of blocking buffer (TBS plus 0.1% Tween 20 and 5% nonfat milk) overnight at 4_. In the measurement of protein, the membrane was incubated with appropriate PKARI or PKA1—1— primary antibody (diluted 1:250) in 2 ml of blocking buffer for 1 h at room temperature, washed three times for 5 min each with 15 ml of Tris-buffered saline/Tween 20 (TBS plus 0.1% Tween 20), incubated with horseradish peroxidase-conjugated secondary antibody (1:10,000) in 15 ml of blocking buffer with gentle agitation for 1 h at room temperature, and finally washed three times for 5 min each time with 15 ml of Tris-buffered saline/Tween 20. The membrane was then subjected to enhanced chemiluminescence (GE Healthcare) for the detection of the specific antigen.

[2] = test system: guinea pig tracheal smooth muscle cells; test: Measurement of cAMP in TSMCs; format: cell-based; conditions: for cAMP level / cAMP accumulation versus vehicle (FIG. 6): 100 _M, 20 min; for cAMP level: basal/vehicle 62.6±6.4
Description: as §1
(§2) Measurement of cAMP and cGMP: Intracellular concentrations of cAMP and cGMP in TSMCs were measured as in our previous reports (Wu B N, Lin R J, Lin C Y, Shen K P, Chiang L C, and Chen I J (2001) A xanthine-based KMUP-1 with cyclic GMP enhancing and K^+ channels opening activities in rat aortic smooth muscle. Br J Pharmacol 134:265-274; Lin R J, Wu B N, Lo Y C, Shen K P, Lin Y T, Huang C H, and Chen I J (2002) KMUP-1 relaxes rabbit corpus cavernosum smooth muscle in vitro and in vivo: involvement of cyclic GMP and K(+) channels, Br J Pharmacol 135:1159-1166). In brief, cells were finally grown in 24-well plates (10^5 cells/well). At confluence, monolayer cells were washed with phosphate-buffered saline and then incubated with KMUP-3 (0.01-100 _M) for 20 min at 37_ in medium. […] The reaction was terminated by replacement of medium with 1 ml of ice-cold 1 N hydrochloric acid. Cells suspensions were sonicated and then centrifuged at 2500 g for 15 min at 4_. Then, the supernatants were lyophilized and the cAMP and cGMP of each sample were determined using commercially available radioimmunoassay kits (GE Healthcare, Little Chalfont, Buckinghamshire, UK).

[3] = test system: carbachol (1 _M)-precontracted guinea pig trachea; test: Isolated tracheal preparation, measurement of tension; conditions: 100 _M, carbachol (1 _M)-precontracted, EP+
Description: Isolated Tracheal preparation and Measurement of Tension: Guinea pigs (350-450 g) were anesthetized with pentobarbital (70 mg/kg) i.p. and killed by a sharp blow on the neck, followed by cervical dislocation. The trachea was excised, cleaned of adhering fat and connective tissue, cut transversely into four to five rings, and then opened by cutting longitudinally through the cartilage rings diametrically opposite the tracheal smooth muscle (Hwang T L, Wu C C, and Teng C M (1999) YC-1 potentiates nitric oxide-induced relaxation in guinea-pig trachea. Br J Pharmacol 128:577-584). Then trachea rings were suspended in a 10-ml organ bath containing Krebs' solution (118 mM NaCl, 25 mM NaHCO3, 4.7 mM KCl, 1.2 mM KH2PO4, 1.2 mM MgSO4, 11 mM glucose, and 2.5 mM CaCl2, pH 7.3-7.4) maintained at 37_and aerated with 95% O2 and 5% CO2. Each tracheal tissue sample was subjected to 2 g of initial basal tension. All experiments were carried out in the presence of indomethacin (3 _M) and propranolol (1 _M) to prevent the formation of prostanoids and to inhibit _-adrenergic responses, respectively. Isometric tension was recorded with a force displacement transducer (model FT03; Grass Instruments, Quincy, M A). Before the start of measurements, all preparations were allowed to equilibrate with frequent washing for 1 h. They were first contracted with carbachol (1 _M) to determine the contractility of preparations. This was also done at the end of each experiment. The preparations were then washed and allowed to equilibrate with Krebs' solution for 50 min before being contracted a second time with carbachol (1 _M). When stable constriction to carbachol was reached, concentration responses of KMUP-3 (10, 30, and 100 _M) were obtained. Data were expressed as percentages of the maximum contractile response to carbachol (1 _M).
In experiments to examine the role of epithelium in tracheal relaxation, the epithelial cells were removed mechanically by rubbing the internal surface of trachea with a fine silver wire, and the removal of the epithelial layer was confirmed by histological examination as previously described (Wu et al., 2004).
To examine the possible mechanism of tracheal relaxant effects of KMUP-3, the tracheal strips were pretreated with a K^+ channel blocker, tetraethylammonium (TEA; 10 mM); a KATP channel blocker, glibenclamide (1-M); voltage-dependent K^+ channel blocker, 4-aminopyridine (4-AP, 100 _M); Ca^2+-dependent K^+ channel blockers, apamin (1 _M) and charybdotoxin (ChTX; 0.1 _M); a sGC inhibitor, 1H-[1,2,4]oxadiazolo[4,3-a]quinoxalin-1-one (ODQ; 1 _M); an NOS inhibitor, N—nitro-L-arginine methyl ester (L-NAME; 100 _M); and an adenylate cyclase (AC) inhibitor, SQ 22536 (100 _M) for 30 min prior to the addition of KMUP-3 (10, 30, and 100 _M). In the other experiments, TSMs were precontracted with 60 mM KCl to examine the relaxation achieved by KMUP-3. The KCl solution was prepared by substituting NaCl with KCl (60 mM) in an equimolar amount.

[4] = test system: guinea pig tracheal smooth muscle cells; test: Measurement of cGMP in TSMCs; format: cell-based; conditions: for amounts of cGMP versus vehicle (FIG. 6): 100 _M, 20 min
Description: as §1, §2

[5] = test system: PDE4 purified from human U-937 pronocytic cells; test: Phosphodiesterase activity, PDE4; format: biochemical; conditions: 10 _M compound, n = 3
Description: Phosphodiesterase Activity: PDE activity was determined by the method of Nicholson et al. (Nicholson C D, Challiss R A, and Shahid M (1991) Differential modulation of tissue function and therapeutic potential of selective inhibitors of cyclic nucleotide phosphodiesterase isonzymes. Trends Pharmaclo Sci 12:19-27). PDE3 and PDE5 purified from human platelets and PDE4 purified from human U-937 pronocytic cells were used. Test compound (10 _M) or vehicle was incubated with 0.2 _g of enzyme and 1 _M cAMP containing 0.01 _M [^3H]cAMP in Tris buffer, pH 7.5, for 20 min at 25_. The reaction was terminated by boiling for 2 min, and the resulting […] was converted to adenosine by the addition of 10 mg/ml snake venom nucleotidase, which is followed by a further incubation at 37_for 10 min. Unhydrolyzed cAMP was bound to AG1-X2 resin, and the remaining [^3H]adenosine in the aqueous phase was quantitated by scintillation counting.

Row | Compound | relaxation in epithelium-intact trachea (FIG. 3(B)) [3] | amounts of cGMP versus vehicle (FIG. 6) [4] | cAMP accumulation versus vehicle (FIG. 6) [2] | other results
1 | Nc1ncnc2c1nc(Br)n2[C@@H]1O[C@@H]2COP(=O)(O)O[C@H]2[C@H]1O [8-Br-cAMP, reference compound] |  |  |  | expression of immunoreactive PKARI protein (FIG. 7(A)) [1]: increased the expression of PKARI
2 | Nc1nc2c(nc(Br)n2[C@@H]2O[C@@H]3COP(=O)(O)O[C@H]3[C@H]2O)c(=O)[nH]1 [8-Br-cGMP, reference compound] |  |  |  | expression of PKA1—1— (FIG. 7(B)) [1]: increased the expression of PKA1—1—
3 | C=C[C@@]1(C)CC(=O)[C@]2(O)[C@@]3(C)[C@@H](O)CCC(C)(C)[C@@H]3[C@H](O)[C@H](OC(C)=O)[C@@]2(C)O1 [Forskolin, forskolin, reference compound] |  |  |  | cAMP level in presence of SQ 22536 ([2]; 100 _M compound plus SQ 22536 (100 _M) pretreatment): 94.33 ± 3.42 pmol/mg protein; cAMP level [2]: 119.15 ± 5.11 pmol/mg protein
4 | CC(C)Cn1c(=O)n(C)c(=O)c2[nH]cnc21 [IBMX, 3-isobutyl-1-methylxanthine, reference compound] | cause relaxations |  |  | 
5 | O=c1onc2cnc3ccccc3n12 [ODQ, 1H-[1,2,4]oxadiazolo[4,3-a]quinoxalin-1-one, reference compound] |  |  |  | Cyclic GMP level ([4]; 10 _M (ODQ alone), vehicle 1.18 ± 0.06): 1.12 ± 0.03 pmol/mg protein
6 | Nc1ncnc2c1ncn2C1CCCO1 (stereo not drawn) [SQ 22536, reference compound] |  |  |  | cAMP level [2]: 74.32 ± 7.56 pmol/mg protein
7 | CC1(C)Oc2ccc(C#N)cc2[C@@H](N2CCCC2=O)[C@@H]1O [levcromakalim, reference compound] | displayed relaxation effects |  |  | 
8 | Cc1[nH]c(=O)c(C#N)cc1-c1ccncc1 [milrinone, reference compound] | cause relaxations | not observed | significant elevations | 
9 | COc1ccc(C2CNC(=O)C2)cc1OC1CCCC1 (stereo not drawn) [rolipram, reference compound] | cause relaxations | not observed | significant elevations | 
10 | Cn1c(=O)c2[nH]cnc2n(C)c1=O [theophylline, reference compound] | cause relaxations | significantly enhances | significant elevations | PDE4 Inhibition [5]: 7.9±1.2%
11 | CCCOc1ccccc1-c1nc2nn[nH]c2c(=O)[nH]1 [zaprinast, reference compound] | cause relaxations | significantly enhances | not so | 
